Results published in publication PMC11596392, “Enhanced Antibacterial, Anti-Inflammatory, and Antibiofilm Activities of Tryptophan-Substituted Peptides Derived from Cecropin A-Melittin Hybrid Peptide BP100” (Molecules, 2024).
Where no end group is shown, it is not given here.

What was measured:
[1] = tested on: preformed MDRPA (CCARM 2095) biofilms; assay type: cell-based, multidrug-resistant Pseudomonas aeruginosa; details: 24 h treatment; for MBEC50: 50% eradication; for MBEC90: 90% eradication
Protocol: While preventing biofilm formation on surfaces is crucial, treating established biofilm infections presents a significant challenge due to the extracellular polymeric substance (EPS) matrix hindering antibiotic penetration and the high cell density within mature biofilms. To address this challenge, we evaluated the ability of BP100 and its analogs to eradicate established MDRPA biofilms over a 24 h period. The minimum biofilm eradication concentration (MBEC90) was determined using crystal violet staining as the lowest concentration that reduced biomass by more than 90%. Among these peptides, BP5, BP6, BP7, BP8, BP9, BP11, and BP13 eradicated preformed MDRPA biofilms by more than 90% at a concentration of 8 μM (Figure 3c,d and Table 3).
The minimal biofilm eradication concentration (MBEC) for peptides against the multidrug-resistant Pseudomonas aeruginosa (MDRPA) (CCARM 2095) strain was assessed using the Calgary Biofilm Device (CBD), supplied by Innovotech, Edmonton, AB, Canada. A bacterial suspension with a density of (1 × 10^6) CFU/mL in (150 µL) of Luria–Bertani (LB) media was dispensed into each well of a 96-well microtiter plate, which was equipped with a peg lid (Innovotech, product code: 19111). This plate was incubated at 37 °C for 24 h with agitation at 110 rpm, promoting biofilm formation on the pegs. Subsequently, the peg lid was washed with phosphate-buffered saline (PBS, 0.01 M) and relocated to a fresh plate containing varying peptide concentrations (200 µL per well). The biofilms were then subjected to these peptides under the same incubation conditions. After another PBS rinse, the peg lid was moved to a recovery plate filled with (200 µL) of LB media per well. To detach the biofilms from the pegs, the recovery plate underwent sonication in a water bath for 10 to 15 min. Finally, the recovery plate was incubated at 37 °C for 24 h with agitation at 110 rpm, allowing any surviving bacteria to proliferate and cause turbidity. The MBEC is defined as the lowest concentration of peptides that inhibited turbidity formation in the recovery plate in comparison to sterility controls. This experiment was conducted in triplicate, and the median value from each trial was recorded.

E. coli (KCTC 1682) = assay type: cell-based, Escherichia coli; details: broth microdilution in MHB, 37 °C, 24 h, 100% inhibition of growth
Protocol: (§1) The antibacterial efficacy of the synthesized peptides was evaluated by determining the minimal inhibitory concentrations (MICs) against six standard bacterial strains and five drug-resistant bacterial strains using the Clinical and Laboratory Standards Institute (CLSI) microdilution method. Melittin served as the positive control.
(§2) The minimal inhibitory concentrations (MICs) of the peptides against bacterial strains were determined using a modified broth-microdilution method in accordance with the National Committee for Clinical Laboratory Standards (NCCLS) guidelines. Overnight cultures were diluted in cation-adjusted Mueller–Hinton Broth (MHB) to achieve an inoculum density of 2 × 10^6 CFU/mL. A two-fold serial dilution of the peptide solution (100 μL) was introduced into microtiter plates, followed by the addition of 100 μL of bacterial suspension. The plates were then incubated at 37 °C for 24 h to determine the MICs. Wells containing only culture media served as negative controls, while those with added bacteria functioned as positive controls. The MIC, expressed in μM, was defined as the lowest peptide concentration that prevented visible bacterial growth. This protocol was also employed to determine MICs in the presence of physiological salts (150 mM of NaCl, 4.5 mM of KCl, 6 μM of NH4Cl, 1 mM of MgCl2, 2.5 mM of CaCl2, and 4 μM of FeCl3) and 20% human serum to assess the peptides’ efficacy under conditions more closely resembling physiological environments. All experiments were conducted in triplicate and repeated three times independently to ensure reproducibility and statistical significance of the results.

MDRPA (CCARM 2109) = assay type: cell-based, multidrug-resistant Pseudomonas aeruginosa; details: broth microdilution in MHB, 37 °C, 24 h, 100% inhibition of growth
Protocol: as §1, §2

MDRPA (CCARM 2095) = assay type: cell-based, multidrug-resistant Pseudomonas aeruginosa; details: broth microdilution in MHB, 37 °C, 24 h, 100% inhibition of growth
Protocol: as §1, §2

S. aureus (KCTC 1621) = assay type: cell-based, Staphylococcus aureus; details: broth microdilution in MHB, 37 °C, 24 h, 100% inhibition of growth
Protocol: as §1, §2

[2] = tested on: P. aeruginosa (KCTC 1637); assay type: cell-based, Pseudomonas aeruginosa; details: broth microdilution in MHB, 37 °C, 24 h, 100% inhibition of growth
Protocol: as §1, §2

MRSA (CCARM 3089) = assay type: cell-based, methicillin-resistant Staphylococcus aureus; details: broth microdilution in MHB, 37 °C, 24 h, 100% inhibition of growth
Protocol: as §1, §2

MRSA (CCARM 3090) = assay type: cell-based, methicillin-resistant Staphylococcus aureus; details: broth microdilution in MHB, 37 °C, 24 h, 100% inhibition of growth
Protocol: as §1, §2

[3] = tested on: MDRPA (CCARM 2095) biofilm formation; assay type: cell-based, multidrug-resistant Pseudomonas aeruginosa; details: overnight 37 °C, crystal violet staining; for MBIC50: 50% inhibition; for MBIC90: 90% inhibition
Text: Bacterial biofilms, comprising communities of bacterial cells encased in a matrix of polysaccharides and nucleic acids, present a significant challenge for conventional antibiotics due to the protective nature of this matrix. Biofilms can enhance bacterial resistance to antibiotics by up to 1000-fold compared to planktonic bacteria. To address this issue, there is an urgent need to discover and develop novel alternative therapeutic agents capable of effectively combating biofilm-forming bacteria. […] Our research specifically focused on evaluating the impact of BP100 and its analogs on biofilm formation and eradication using multidrug-resistant Pseudomonas aeruginosa (MDRPA), a common pathogen responsible for biofilm-mediated nosocomial infections. The adhered biomass was quantified using crystal violet staining, and the minimum biofilm inhibitory concentration (MBIC90) was determined as the lowest concentration required to inhibit 90% of biofilm growth relative to the positive control. […] Human cathelicidin LL-37 is well-documented for its potent antibiofilm properties.
The inhibitory activity of the peptides on biofilm formation was evaluated against multidrug-resistant Pseudomonas aeruginosa (MDRPA) (CCARM 2095) using a biofilm inhibition assay to determine the minimal biofilm inhibitory concentration (MBIC). Peptide solutions were serially diluted in sterile water and aliquoted (100 μL) into a 96-well Costar polypropylene plate (Corning Inc., Corning, NY, USA). An equal volume of MDRPA suspension in Mueller–Hinton Broth (MHB), adjusted to 1 × 10^6 CFU/mL, was added to each well, resulting in a final inoculum density of 5 × 10^5 CFU/mL. Following overnight incubation at 37 °C, bacterial growth was quantified by measuring the optical density (OD) at 595 nm. Planktonic cells were then discarded, and the attached biofilms were washed thrice with distilled water. Residual biofilms were stained with 0.1% crystal violet for five minutes, washed to remove non-adherent dye, and subsequently destained using 95% ethanol. The OD at 595 nm was measured again to assess the biofilm mass. Control wells contained untreated bacteria. The MBIC was defined as the lowest peptide concentration that inhibited any residual crystal violet staining or biofilm formation. All assays were conducted in triplicate to ensure reproducibility. This method allows for the quantitative assessment of the peptides’ ability to prevent biofilm formation, a critical virulence factor in many bacterial infections, particularly those caused by multidrug-resistant strains.

Row | Substance | MBEC50 [1] [µM] | MBEC90 [1] [µM] | Minimal Inhibitory Concentration (MIC) (E. coli (KCTC 1682)) [µM] | Minimal Inhibitory Concentration (MIC) (MDRPA (CCARM 2109)) [µM] | Minimal Inhibitory Concentration (MIC) (MDRPA (CCARM 2095)) [µM] | Minimal Inhibitory Concentration (MIC) (S. aureus (KCTC 1621)) [µM] | Minimal Inhibitory Concentration (MIC) [2] [µM] | Minimal Inhibitory Concentration (MIC) (MRSA (CCARM 3089)) [µM] | Minimal Inhibitory Concentration (MIC) (MRSA (CCARM 3090)) [µM] | MBIC50 [3] [µM] | MBIC90 [3] [µM]
1 | KKLFKKWWKWL-NH2 [BP16] | 16 | 32 | 16 | 32 | 32 | 16 | 8 | 16 | 128 | 8 to 16 | 16
2 | KKLFKKWWKYL-NH2 [BP9] | 4 | 8 | 4 | 16 | 16 | 8 | 16 | 64 | 64 | 8 to 16 | 16
3 | KKLWKKILKWL-NH2 [BP8] | 2 | 8 | 2 | 16 | 8 | 4 | 16 | 16 | 16 | 4 to 8 | 8
4 | KKLWKKIWKYL-NH2 [BP7] | 4 to 8 | 8 | 4 | 4 | 8 | 2 | 8 | 8 | 32 | 4 to 8 | 8
5 | KKLWKKIWKYW-NH2 [BP15] | 8 to 16 | 16 | 4 | 8 | 16 | 2 | 8 | 16 | 64 | 4 to 8 | 8
6 | KKLWKKWLKYW-NH2 [BP14] | 8 to 16 | 16 | 4 | 8 | 16 | 2 | 8 | 16 | 32 | 8 to 16 | 16
7 | KKWFKKILKWL-NH2 [BP6] | 4 | 8 | 4 | 16 | 8 | 2 | 16 | 8 | 16 | 4 to 8 | 8
8 | KKWFKKWLKWL-NH2 [BP13] | 4 | 8 | 8 | 16 | 8 | 4 | 16 | 32 | 32 | 4 to 8 | 8
9 | KKWWKKILKYL-NH2 [BP5] | 2 | 8 | 2 | 4 | 8 | 2 | 4 | 4 | 8 | 4 to 8 | 8
